Source: patent publication US11957687B2 (REGENERON PHARMACEUTICALS, INC., priority 2019, dated 2024)
pIC50: −log10 of the molar value.

Tests used:
HSD17B13 = HSD17B13 (Homo sapiens (Human), UniProt Q7Z5P4); test: HSD17B13 enzymatic inhibition assay (150 nM or 50 nM HSD17B13); format: biochemical; conditions: 50 nM HSD17B13; read-out: Inhibition of 50 nM of HSD17B13 IC50
HSD17B2 = HSD17B2 (Homo sapiens (Human), UniProt P37059); test: HSD17B2 enzymatic blocking assay; format: biochemical; conditions: 1.8 μM Estradiol, 650 μM NAD; read-out: Inhibition of HSD17B2 IC50
Protocol: To screen compounds of the disclosure for their ability to block HSD17B2 function, an enzymatic blocking assay was performed. For the assay, HSD17B2 activity was measured by detecting NADH formation from oxidation of Estradiol using a NADH Glo luminescence assay (Promega, #Cat. No. G9062). Compounds of the disclosure were evaluated in a dose titration assay where the compounds were titrated at 10-point dose curve using an Echo-555 liquid handling dispenser. HSD17B2 (SEQ ID NO: 3, expressed in mammalian cells) was added at a final concentration of 2 ng/μL in a buffer containing 50 mM Tris-HCl, pH 7.5, Pluronic F-127 0.05%, Tween20 0.01%, BSA 0.01% into a low volume white 384-well assay plate. Compounds were incubated with the enzyme for 15 min at 20° C. The assay reaction was then initiated by addition of 1.8 μM Estradiol substrate (Sigma, catalog #E2758-250MG, CAS: 50-28-2) and 650 μM NAD co-factor, and the reaction mixture was incubated for 45 min at 20° C. DMSO at a concentration of 0.5% was used as a negative control and a ‘no substrate’ control was used a positive control in the assay. Detection reagent was then added as per manufacturer's instructions, and the plate was subsequently incubated in the dark for 1 hour at room temperature, NADH generated was detected in the luminescence mode on the Envision Perkin Elmer plate reader. The IC50 values were determined using Dotmatics analysis software.

[1] = Microsome stability assay, human liver microsomes; format: in vitro ADME; conditions: 1 μM compound, 0.5 mg/mL microsomal protein; for microsomal CLint at 1 μM / half-life at 1 μM / microsomal CLint at 1 h, 1 µM / half-life at 1 h, 1 µM: human, human liver microsomes, pooled, NADPH, 37° C.; for microsomal CLint at 1 μM / microsomal CLint at 1 h, 1 µM: read-out: Microsome Stability Human liver microsomes Cl; for half-life at 1 μM / half-life at 1 h, 1 µM: read-out: Microsome Stability Human liver microsomes T½
Protocol: (§1) Compounds of the disclosure were screened in microsome stability assays. For the screen, test compounds were incubated at 37° C. with either human liver microsomes (Corning; #452117) or mouse liver microsomes (XenoTech; #M1000), pooled from multiple donors, at 1 μM in the presence of a NADPH regenerating system at 0.5 mg/mL microsomal protein. Positive controls included in the assay were testosterone (3A4 substrate), propafenone (2D6) and diclofenac (2C9). Samples were removed at different time points (0, 5, 10, 20, 30 and 60 minutes) and immediately mixed with cold acetonitrile containing internal standard (IS, 200 ng/mL tolbutamide and 200 ng/mL labetalol). Test compounds incubated with microsomes for 60 minutes without the NADPH regenerating system was also included. A single point for each test condition (n=1) was obtained, and samples were analyzed by LC/MS/MS. Disappearance of the test compound was assessed based on peak area ratios of analyte/IS (no standard curve).

[2] = Microsome stability assay, mouse liver microsomes; format: in vitro ADME; conditions: 1 μM compound, 0.5 mg/mL microsomal protein; for microsomal CLint at 1 μM / half-life at 1 μM / microsomal CLint at 1 h, 1 µM / half-life at 1 h, 1 µM: mouse, mouse liver microsomes, pooled, NADPH, 37° C.; for microsomal CLint at 1 μM / microsomal CLint at 1 h, 1 µM: read-out: Microsome Stability Mouse liver microsomes Cl; for half-life at 1 μM / half-life at 1 h, 1 µM: read-out: Microsome Stability Mouse liver microsomes T½
Protocol: as §1

Chain of HSD17B13 (Q7Z5P4 other isoform, or with tags, fused parts or gaps): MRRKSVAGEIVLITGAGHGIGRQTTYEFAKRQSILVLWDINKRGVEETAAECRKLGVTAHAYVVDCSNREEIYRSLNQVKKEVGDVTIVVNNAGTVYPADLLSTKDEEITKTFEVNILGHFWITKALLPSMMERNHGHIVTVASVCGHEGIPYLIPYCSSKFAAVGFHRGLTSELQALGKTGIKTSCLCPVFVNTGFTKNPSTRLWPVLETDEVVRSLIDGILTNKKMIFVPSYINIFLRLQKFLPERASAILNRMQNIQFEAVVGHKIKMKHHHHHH
Chain of HSD17B2 (P37059 other isoform, or with tags, fused parts or gaps): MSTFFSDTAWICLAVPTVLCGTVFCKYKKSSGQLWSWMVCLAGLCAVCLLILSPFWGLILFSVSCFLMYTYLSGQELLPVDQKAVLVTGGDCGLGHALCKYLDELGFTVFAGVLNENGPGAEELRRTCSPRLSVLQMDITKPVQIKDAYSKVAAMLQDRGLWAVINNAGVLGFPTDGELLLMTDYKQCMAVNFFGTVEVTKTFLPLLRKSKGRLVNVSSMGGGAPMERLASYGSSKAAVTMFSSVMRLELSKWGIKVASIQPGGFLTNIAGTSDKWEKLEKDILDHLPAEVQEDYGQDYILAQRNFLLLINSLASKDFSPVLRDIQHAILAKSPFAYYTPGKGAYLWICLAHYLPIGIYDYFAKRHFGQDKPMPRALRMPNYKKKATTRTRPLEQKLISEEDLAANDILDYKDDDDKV

Structure (SMILES)	pIC50 (HSD17B13)	pIC50 (HSD17B2)	Microsome Stability Human liver microsomes % Remaining @60 min [1] [%]	microsomal CLint at 1 μM [1] [µL/min/mg]	half-life at 1 μM [1] [min]	Microsome Stability Mouse liver microsomes % Remaining @60 min [2] [%]	microsomal CLint at 1 μM [2] [µL/min/mg]	half-life at 1 μM [2] [min]	microsomal CLint at 1 h, 1 µM [1] [µL/min/mg]	half-life at 1 h, 1 µM [1] [min]	microsomal CLint at 1 h, 1 µM [2] [µL/min/mg]	half-life at 1 h, 1 µM [2] [min]
C=Cc1ccc(C(NC(=O)c2ccc(C(F)(F)F)[nH]c2=O)c2ccccc2)cc1 (stereo not shown) [Compound 3A, 2-oxo-N-(phenyl(4-vinylphenyl)methyl)-6-(trifluoromethyl)-1,2-dihydropyridine-3-carboxamide]	5.89	4.88	–	–	–	–	–	–	–	–	–	–
Cc1ccc2c(c1)[C@@H](O)CC[C@H]2NC(=O)c1ccc(C(F)(F)F)[nH]c1=O [Compound 312, N-((1R,4S)-4-hydroxy-6-methyl-1,2,3,4-tetrahydronaphthalen-1-yl)-2-oxo-6-(trifluoromethyl)-1,2-dihydropyridine-3-carboxamide]	6.35	–	78.40	< 9.6	> 145	96.90	< 9.6	> 145	–	–	–	–
Cc1ccc2c(c1)[C@H](NC(=O)c1ccc(C(F)(F)F)[nH]c1=O)C[C@@H](C)N2 [Compound 370, N-((2R,4R)-2,6-dimethyl-1,2,3,4-tetrahydroquinolin-4-yl)-2-oxo-6-(trifluoromethyl)-1,2-dihydropyridine-3-carboxamide]	6.57	–	86.70	< 9.6	> 145	99.10	< 9.6	> 145	–	–	–	–
Cc1ccc2c(c1)SC(C)CC2NC(=O)c1ccc(C(F)(F)F)[nH]c1=O (stereo not shown) [Compound 385, N-(2,7-dimethylthiochroman-4-yl)-2-oxo-6-(trifluoromethyl)-1,2-dihydropyridine-3-carboxamide]	7.40	–	1	–	–	43	–	–	643	2.15	27	51.3
CCC1Cc2cc(OC)ccc2C(NC(=O)c2ccc(C(F)(F)F)[nH]c2=O)C1 (stereo not shown) [Compound 390, N-(3-ethyl-6-methoxy-1,2,3,4-tetrahydronaphthalen-1-yl)-2-oxo-6-(trifluoromethyl)-1,2-dihydropyridine-3-carboxamide]	7.15	–	11	–	–	62.80	–	–	151	9.15	16.8	82.3
Cc1ccc(C(CC2CC2)NC(=O)c2ccc(C(F)(F)F)[nH]c2=O)cc1 (stereo not shown) [Compound 401, N-(2-cyclopropyl-1-(p-tolyl)ethyl)-2-oxo-6-(trifluoromethyl)-1,2-dihydropyridine-3-carboxamide]	6.46	–	1.80	–	–	4	–	–	463	2.99	182	7.61
Cc1ccc(C(CC2CCC2)NC(=O)c2ccc(C(F)(F)F)[nH]c2=O)cc1 (stereo not shown) [Compound 557, N-(2-cyclobutyl-1-(p-tolyl)ethyl)-2-oxo-6-(trifluoromethyl)-1,2-dihydropyridine-3-carboxamide]	6.85	–	1	–	–	65	–	–	437	3.17	14.4	96.3

Continued, values first:

pIC50 (HSD17B13)	pIC50 (HSD17B2)	Microsome Stability Human liver microsomes % Remaining @60 min [1] [%]	microsomal CLint at 1 μM [1] [µL/min/mg]	half-life at 1 μM [1] [min]	Microsome Stability Mouse liver microsomes % Remaining @60 min [2] [%]	microsomal CLint at 1 μM [2] [µL/min/mg]	half-life at 1 μM [2] [min]	microsomal CLint at 1 h, 1 µM [1] [µL/min/mg]	half-life at 1 h, 1 µM [1] [min]	microsomal CLint at 1 h, 1 µM [2] [µL/min/mg]	half-life at 1 h, 1 µM [2] [min]	Structure (SMILES)
7.15	–	1.70	–	–	54.30	–	–	132	10.5	19.4	71.3	CCCC1=Cc2cc(C)ccc2C1NC(=O)c1ccc(C(F)(F)F)[nH]c1=O (stereo not shown) [Compound 341, N-(5-methyl-2-propyl-1H-inden-1-yl)-2-oxo-6-(trifluoromethyl)-1,2-dihydropyridine-3-carboxamide]
6.28	–	28.20	35.4	39.1	28.90	41.2	33.6	–	–	–	–	CCC[C@H]1Oc2ccc(C)cc2[C@@H]1NC(=O)c1ccc(C(F)(F)F)[nH]c1=O [Compound 353, N-((2R,3S)-5-methyl-2-propyl-2,3-dihydrobenzofuran-3-yl)-2-oxo-6-(trifluoromethyl)-1,2-dihydropyridine-3-carboxamide]
6.34	–	1	154	9	1.01	154	9	–	–	–	–	CCC[C@H]1Oc2cc(C)ccc2[C@@H]1NC(=O)c1ccc(C(F)(F)F)[nH]c1=O [Compound 358, N-((2R,3S)-6-methyl-2-propyl-2,3-dihydrobenzofuran-3-yl)-2-oxo-6-(trifluoromethyl)-1,2-dihydropyridine-3-carboxamide]
6.52	–	60.50	17	82	52.90	19.2	72.3	–	–	–	–	CCC[C@@H]1C[C@@H](NC(=O)c2ccc(C(F)(F)F)[nH]c2=O)c2cc(C)ccc2N1 [Compound 361, N-((2R,4R)-6-methyl-2-propyl-1,2,3,4-tetrahydroquinolin-4-yl)-2-oxo-6-(trifluoromethyl)-1,2-dihydropyridine-3-carboxamide]
7.22	–	27.30	44.2	31.3	87	< 9.6	> 145	–	–	–	–	CC[C@@H]1C[C@H](NC(=O)c2ccc(C(F)(F)F)[nH]c2=O)c2ccc(C)cc2N1 [Compound 366, N-((2R,4S)-2-ethyl-7-methyl-1,2,3,4-tetrahydroquinolin-4-yl)-2-oxo-6-(trifluoromethyl)-1,2-dihydropyridine-3-carboxamide]
6.43	–	51.70	–	–	56.20	–	–	23.4	59.3	18.1	76.4	CCC[C@@H]1C[C@H](NC(=O)c2ccc(C(F)(F)F)[nH]c2=O)c2ccc(C)cc2N1 [Compound 368, N-((2R,4S)-7-methyl-2-propyl-1,2,3,4-tetrahydroquinolin-4-yl)-2-oxo-6-(trifluoromethyl)-1,2-dihydropyridine-3-carboxamide]
6.96	–	35.70	–	–	95.30	< 9.6	> 145	30.8	45	–	–	CCC[C@@H]1C[C@@H](NC(=O)c2ccc(C(F)(F)F)[nH]c2=O)c2ccc(C)cc2N1 [Compound 369, N-((2R,4R)-7-methyl-2-propyl-1,2,3,4-tetrahydroquinolin-4-yl)-2-oxo-6-(trifluoromethyl)-1,2-dihydropyridine-3-carboxamide]
7.30	–	0.36	–	–	25.30	–	–	364	3.81	43.6	31.8	CCC1CCc2cc(C)ccc2C1NC(=O)c1ccc(C(F)(F)F)[nH]c1=O (stereo not shown) [Compound 543, N-(2-ethyl-6-methyl-1,2,3,4-tetrahydronaphthalen-1-yl)-2-oxo-6-(trifluoromethyl)-1,2-dihydropyridine-3-carboxamide]
